Assay results from US20070105810A1, “THERAPEUTICS” (priority 2003, published 2007).
Where “and” joins values, the source holds several entries; their conditions need not be identical. Equal entries are not always repeated. Entries after “also recorded” stand apart in the source; their conditions may differ.

Experiments:
[1] = system: transfer experimental autoimmune encephalomyelitis (EAE) in Lewis rats; assay: Transfer experimental autoimmune encephalomyelitis (EAE); format: in vivo, Lewis rat
Excerpt: Transfer of MBP-specific CD4-positive T cells was used at day 0 to induce experimental autoimmune encephalomyelitis (EAE) in Lewis rats. Animals injected with PBS (vehicle) or nicotinic acid (control compound with structural similarities to BZ52) developed severe paralysis of tail and rear legs due to the inflammation. Clinical symptoms started day 3.5 and reached their maxima day 4 to 6 (or 6.5). Between day 3.5 and day 6, no difference between PBS and nicotinic acid was observed, whereas a beneficial effect of BZ52 was visible (FIG. 14).
Animals (6 per group, body weight approx. 150 g) were injected i.p. twice per day with either PBS (vehicle control), nicotinic acid (50 μmol/100 g body weight), or BZ 52 (50 μmol/100 g body weight). Clinical scores indicate the degree of paralysis of tail and legs. Data are presented as mean±SD from one representative experiment (n=6).
Animals (6 per group, body weight approx. 150 g) were injected i.p. twice per day with either PBS (vehicle control), nicotinic acid (50 μmol/100 g body weight), or BZ 52 (50 μmol/100 g body weight). […] Data are presented as mean±SD from one representative experiment (n=6).
5×10^6 activated MBP specific-GFP Tcells were transferred i.v. into recipient Lewis rats. Clinical EAE was graded in five scores: 0.5, loss of tail tonus; 1, tail paralysis; 2, gait disturbance; 3, hind limb paralysis; 4, tetraparesis; 5, death.
Animals' weight was measured twice a day.
In order to analyze the effect of BZ194 on encephalitogenic T cells during the effector phase of EAE we used retrovirally transduced MBP-specific T cells expressing the marker gene green fluorescent protein (TMBP-GFP cells).
Animals were treated for 5 d intraperitoneally with 500 μmol BZ194 or vehicle (DMSO).

[2] = system: NAADP/Ca2+ signalling in Jurkat T cells; assay: Ca2+ signalling evoked by microinjection of NAADP in Jurkat T cells; format: cell-based, human; settings: for NAADP-mediated Ca2+ signalling: T-lymphocytes, summary statement
Method: NAADP (final concentration 100 nM), IP3 (final concentration 4 μM), and BZ52 (final concentration 1 mM) were injected into single Jurkat T cells while [Ca^2+]i was analyzed by Ca^2+ imaging. Data are presented as mean±SEM (n=4 to 13).
Effect of NAADP-microinjection and co-injection with BZ52 (1 mM) on [Ca^2+]i in human Jurkat T-Lymphocytes. Upper panel: microinjection of 100 nM NAADP (arrow), middle panel: microinjection of the vehicle buffer (arrow), lower panel: co-microinjection of 100 nM NAADP plus 1 mM BZ52 (arrow).
The Jurkat T cells were loaded with fura-2/AM and kept in the dark at room temperature until use. Glass coverslips were coated first with BSA (5 mg/ml) and subsequently with poly-L-lysine (0.1 mg/ml). Small chamber slides consisting of a rubber O-ring were sealed on thin (0.1 mm) glass coverslips by silicon grease. Then, 60 μl buffer A containing 140 mM NaCl, 5 mM KCl, 1 mM MgSO4, 1 mM CaCl2, 1 mM NaH2PO4, 5.5 mM glucose, and 20 mM HEPES (pH 7.4), and 40 μl cell suspension (2*10^6 cells/ml) suspended in the same buffer were added into the small chamber and the coverslip was mounted on the stage of a fluorescence microscope (Leica DM IRE2).
Ratiometric Ca^2+ imaging was performed as described earlier. In brief, we used an Improvision imaging system (Heidelberg, Germany) built around the Leica microscope at 100-fold magnification. Illumination at 340 and 380 nm was carried out using a monochromator system (Polychromator IV, TILL Photonics, Graefelfing, Germany). Images were taken with a gray-scale CCD camera (type C4742-95-12ER; Hamamatsu, Enfield, United Kingdom; operated in 8-bit mode). The optimal relation of spatial to temporal resolution for the ratiometric measurements was obtained using a spatial resolution of 512×640 pixel, resulting in a pixel length of 129 nm/pixel (at 100-fold magnification). […]
Ratiometric Ca^2+ imaging—The cells were loaded with fura-2/AM and kept in the dark at room temperature until use. […] The coverslip with cells slightly attached to the BSA/poly-L-lysine coating was mounted on the stage of a fluorescence microscope (Leica DM IRE2). […]

[3] = 500 μmol BZ194 i.p. for 5 d, mean±SD, Experiments I-III

CCCCN(CCCC)C(=O)C[n+]1cccc(C(=O)O)c1 [BZ52, 3-Carboxy-1-dibutylcarbamoylmethyl-pyridinium]
decrease in body weight ([1]; 50 μmol/100 g body weight i.p. twice per day): less pronounced decrease
clinical symptoms (clinical score) vs PBS ([1]; 50 μmol/100 g body weight i.p. twice per day, day 3.5 to day 6): a less rapid increase of symptoms, a decreased maximum score and a more rapid decline of clinical symptoms
NAADP-mediated Ca2+ signalling [2]: efficiently inhibited
effect of NAADP on Ca2+ signal (peak and plateau) ([2]; co-injection of BZ52 1 mM with NAADP 100 nM): almost completely antagonized

CCCCCCCCNC(=O)C[n+]1cccc(C(=O)O)c1.[Br-] [BZ194, 3-Carboxy-1-Octylcarbamoylmethyl-Pyridinium]
Max. body weight loss (%) [1, 3]: 8 ± 1.6% and 10 ± 4.4% and 9 ± 4.3%
Max. clinical score [1, 3]: 1.6 ± 0.5 and 1.4 ± 0.8
clinical EAE (clinical score) ([1]; intraperitoneal BZ194, EAE by i.v. transfer of 5×10^6 TMBP-GFP cells): suppressed; also recorded: significantly ameliorated
NAADP-mediated Ca2+ signalling [2]: efficiently inhibited
